Key:
Experiment in all cases: relative viability (nuclei count vs DMSO), 5 days (fraction); higher = more cells survive
[1] = compound: C[C@@H](N)c1ccc(C(=O)Nc2ccnc3[nH]ccc23)cc1 + CCNC(=O)c1noc(-c2cc(C(C)C)c(O)cc2O)c1-c1ccc(CN2CCOCC2)cc1 [Luminespib] (partner 0.01 µM)
Procedure, shortened: (§1)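 Relative viability divides the nuclei count in treated wells by that in vehicle wells. Lung cancer cell lines were seeded in 1536-well plates, dosed by pin tool the next day, and fixed and stained after 5 days in one step with final 0.05% Triton X-100, 1% formaldehyde and 1 ug/ml Hoechst. Dosing was a single drug or a fixed anchor-drug dose plus five library-drug doses (not always all listed) in √10 steps, and values are medians of duplicate plates imaged at 4×.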

[2] = compound: C1CNCCC1C2=CC(=NN2)C3=CC=NC=C3 + CC1(C)CCC(c2ccc(Cl)cc2)=C(CN2CCN(c3ccc(C(=O)NS(=O)(=O)c4ccc(N[C@H](CCN5CCOCC5)CSc5ccccc5)c(S(=O)(=O)C(F)(F)F)c4)cc3)CC2)C1 [Navitoclax] (partner 0.5 µM)
Procedure, shortened: as §1

[3] = compound: C[C@@H](N)c1ccc(C(=O)Nc2ccnc3[nH]ccc23)cc1 + CS(=O)(=O)N1CCN(Cc2cc3nc(-c4cccc5[nH]ncc45)nc(N4CCOCC4)c3s2)CC1 [Pictilisib] (partner 1 µM)
Procedure, shortened: as §1

Row | Cell Line | relative viability ([1]; first compound 0.04 µM) | relative viability ([1]; first compound 0.1265 µM) | relative viability ([1]; first compound 0.4 µM) | relative viability ([1]; first compound 1.265 µM) | relative viability ([1]; first compound 4 µM) | relative viability ([2]; first compound 0.08 µM) | relative viability ([2]; first compound 0.8 µM) | relative viability ([2]; first compound 2.53 µM) | relative viability ([2]; first compound 8 µM) | relative viability ([3]; first compound 0.04 µM) | relative viability ([3]; first compound 0.1265 µM) | relative viability ([3]; first compound 0.4 µM) | relative viability ([3]; first compound 1.265 µM) | relative viability ([3]; first compound 4 µM)
1 | LOU-NH91 | 0.283 | 0.334 | 0.381 | 0.33 | 0.316 | 0.653 | 0.762 | 0.866 | 0.703 | 0.517 | 0.517 | 0.562 | 0.398 | 0.549
2 | LU99A | – | 0.303 | 0.323 | 0.251 | 0.292 | 0.662 | 0.872 | 0.776 | 0.732 | 0.307 | 0.319 | 0.385 | 0.297 | 0.324
3 | LXF-289 | 0.711 | 0.616 | 0.785 | 0.691 | 0.534 | 0.957 | 1.02 | 0.977 | 0.934 | 0.943 | 0.779 | 0.928 | 0.872 | 0.683
4 | NCI-H23 | 0.198 | 0.235 | 0.203 | – | 0.21 | 0.711 | 0.908 | 1.09 | 0.948 | 0.605 | 0.536 | 0.487 | – | 0.557
5 | NCI-H322M | 1.08 | 1.1 | 1.03 | – | 0.742 | 1.22 | 1.19 | 1.24 | 1.18 | 0.681 | 0.536 | 0.561 | – | 0.731
6 | NCI-H358 | 0.231 | 0.213 | 0.348 | 0.237 | 0.364 | – | – | – | – | 0.339 | 0.31 | 0.33 | 0.289 | 0.326
7 | NCI-H441 | 0.451 | 0.342 | 0.326 | – | 0.403 | – | 0.915 | 0.836 | 0.704 | 0.549 | 0.569 | 0.553 | 0.4 | 0.458
8 | NCI-H460 | 0.04 | 0.0445 | 0.0267 | 0.0276 | 0.0227 | 0.888 | 1.38 | 1.17 | 1.29 | 0.467 | 0.252 | 0.489 | 0.0436 | 0.372
9 | NCI-H520 | 0.192 | 0.188 | 0.24 | 0.218 | 0.213 | 1.06 | 1.01 | 1.06 | 1.28 | 0.33 | 0.301 | 0.29 | 0.396 | 0.504
10 | NCI-H522 | 1.34 | 1.06 | 1.59 | 1.02 | 0.885 | – | – | – | – | – | – | – | – | –
11 | NCI-H596 | 1.33 | 0.912 | 0.98 | – | 0.975 | 1.01 | 1.07 | 1.02 | 0.958 | 0.435 | 0.44 | 0.408 | 0.416 | 0.319
12 | NCI-H647 | 0.133 | 0.228 | 0.139 | 0.14 | 0.0908 | 1.18 | 1.33 | 1.37 | 1.12 | 0.301 | 0.394 | 0.451 | – | 0.42
13 | NCI-H650 | – | 0.928 | 0.844 | 0.718 | 0.635 | – | – | – | – | 0.81 | 0.753 | 0.704 | – | 0.708
14 | NCI-H661 | 0.921 | 0.923 | 0.873 | 0.781 | 0.811 | – | – | – | – | 0.433 | 0.54 | 0.454 | 0.351 | 0.509
15 | NCI-H727 | 0.341 | 0.516 | 0.425 | 0.285 | 0.363 | 0.411 | 0.459 | 0.623 | 0.67 | 0.63 | 0.466 | 0.785 | 0.223 | 0.683
16 | NCI-H838 | 0.355 | 0.315 | 0.32 | 0.282 | 0.222 | 1.13 | 1.11 | 1.25 | 1.14 | 0.402 | 0.421 | 0.335 | 0.31 | 0.317
17 | NCI-H1299 | – | – | – | – | – | 1.09 | 1.04 | 1.02 | 1.09 | 0.874 | 0.921 | 0.973 | 0.892 | 0.678
18 | NCI-H1355 | 0.759 | 0.72 | 0.807 | 0.66 | 0.625 | 0.919 | 0.813 | 1.09 | 0.871 | 0.338 | 0.429 | 0.555 | – | 0.351
19 | NCI-H1395 | 0.662 | 0.716 | 0.64 | 0.669 | 0.685 | 1.15 | 0.976 | 1.23 | 1.13 | 0.566 | 0.626 | 0.655 | – | 0.627
20 | NCI-H1437 | 1.1 | 1.05 | 1.21 | 1.13 | 0.907 | 1.06 | 1.11 | 1.1 | 1.12 | 0.468 | 0.419 | 0.407 | 0.396 | 0.488
21 | NCI-H1563 | 0.514 | 0.484 | 0.499 | 0.508 | 0.514 | – | – | – | – | 0.691 | 0.661 | 0.638 | 0.578 | 0.688
22 | NCI-H1623 | 0.657 | 0.494 | 0.563 | 0.491 | 0.591 | – | – | – | – | – | – | – | – | –
23 | NCI-H1650 | 0.2 | 0.191 | 0.177 | 0.17 | 0.195 | 1.11 | 1.37 | 1.12 | 1.22 | 0.672 | 0.584 | 0.595 | 0.318 | 0.586
24 | NCI-H1651 | 0.806 | 0.734 | 1.1 | 1.02 | 0.826 | 0.897 | 1.07 | 0.963 | 1.16 | 0.663 | 0.646 | 0.684 | 0.808 | 0.799
25 | NCI-H1666 | 1.02 | 1.03 | 1.13 | 1.4 | 1.16 | 0.807 | 0.877 | 1.06 | 1.02 | 0.527 | 0.407 | 0.498 | 0.476 | 0.728
26 | NCI-H1703 | – | – | – | – | – | 1.08 | 1.59 | 1.15 | 1.35 | 0.235 | 0.247 | 0.205 | 0.234 | 0.197
27 | NCI-H2342 | 0.858 | 0.797 | 0.719 | 0.802 | 0.808 | – | – | – | – | – | – | – | – | –
28 | SW 900 | 0.185 | 0.214 | 0.152 | 0.172 | 0.152 | – | – | – | – | – | – | – | – | –

Source: the supplement of paper PMC10307832
